Experimental data as given in patent US20100152152A1, “Therapeutic Use of Nefopam” (priority 2005, published 2010).
Structures can show the parent of a compound that is named as a salt. Marks after values point to notes of the source that are not given here.

Columns and labels:
[1] = conventional release preparations; cited from earlier work
[2] = tested on: Mice; test: Marble Burying Test (anxiolytic/tranquillizing activity); format: in vivo; details: 30 minutes before the test, 30 minute test
Description: Nefopam and (+)-nefopam were evaluated in the Marble Burying Test, a model which detects anxiolytic/tranquillizing activity. This is a general model for affective disorders.
The method follows that described by Broekkamp et al. (1986 Eur. J. Pharmacol., 126, 223-229. Mice exposed to novel objects (marbles) will bury them in the sawdust floor covering. Anxiolytics decrease the number of marbles buried at non-sedative doses.
Mice are individually placed in transparent plastic cages (33×21×18 cm) with 5 cm of sawdust on the floor and 25 marbles grouped in the centre of each cage. Each test cage is covered with an inverted plastic covering. Each test cage, together with the marbles, is impregnated with mouse odor beforehand, by leaving 10 mice in the cage for 15 minutes. These mice then play no further role in the experiment. The number of marbles covered by sawdust (⅔ or more) is counted at the end of a 30 minute test.
All compounds were administered i.p. 30 minutes before the test, and compared with a vehicle control group. Clobazam (8 mg/kg i.p.), administered under the same experimental conditions, was used as reference substance.

[3] = tested on: dopamine, norepinephrine and serotonin uptake; details: in vitro and in vivo; Fasmer et al., 1987; Rosland and Hole, 1990; Mather at al., 2001; cited from earlier work

Compound | elimination half-life [1] | Number of marbles buried (% change from ctrl) ([2]; 10 mg/kg ip) | Number of marbles buried (% change from ctrl) ([2]; 20 mg/kg ip) | Number of marbles buried (% change from ctrl) ([2]; 40 mg/kg ip) | order of potency (analgesic and dopamine, norepinephrine and serotonin uptake inhibitory properties) [3] | Number of marbles buried (% change from ctrl) ([2]; 32 mg/kg ip)
CN1CCOC(c2ccccc2)c2ccccc2C1 (racemic) [Nefopam, 5-methyl-1-phenyl-3,4,5,6-tetrahydro-1H-2,5-benzoxazocine hydrochloride] | four | −66* % change from ctrl | −98* % change from ctrl | −100* % change from ctrl | – | –
CN1CCO[C@@H](c2ccccc2)c2ccccc2C1 [(+)-nefopam] | – | −56* % change from ctrl | −99* % change from ctrl | −100* % change from ctrl | (+)-nefopam>(±)-nefopam>(−)-nefopam | –
CN1C(=O)CC(=O)N(c2ccccc2)c2cc(Cl)ccc21 [Clobazam] | – | – | – | – | – | −75* % change from ctrl
